We go through 3 compounds from publication PMC9776291 (Biomolecules, 2022).

Common to all, as to format: cell-based
Assay [1] deals with T1, GLUT6 (Homo sapiens, UniProt Q9UGQ3).
T1 construct: gene SLC2A6
T1 sequence (Q9UGQ3 1-507): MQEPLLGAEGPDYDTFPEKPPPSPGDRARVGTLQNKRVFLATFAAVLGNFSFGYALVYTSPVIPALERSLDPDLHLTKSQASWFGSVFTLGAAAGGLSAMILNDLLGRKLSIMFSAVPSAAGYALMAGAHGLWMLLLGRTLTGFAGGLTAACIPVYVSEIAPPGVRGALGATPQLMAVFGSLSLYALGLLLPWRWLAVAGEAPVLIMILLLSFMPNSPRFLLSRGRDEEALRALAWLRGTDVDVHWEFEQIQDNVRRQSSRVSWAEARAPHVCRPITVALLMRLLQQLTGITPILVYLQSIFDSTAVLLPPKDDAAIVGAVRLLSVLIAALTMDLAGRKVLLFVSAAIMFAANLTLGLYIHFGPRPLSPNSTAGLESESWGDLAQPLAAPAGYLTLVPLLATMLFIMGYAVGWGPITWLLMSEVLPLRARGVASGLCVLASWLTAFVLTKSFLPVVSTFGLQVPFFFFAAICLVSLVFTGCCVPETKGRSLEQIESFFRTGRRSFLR
Description: [3H]-2-deoxyglucose uptake in GLUT-expressing HEK293 cells.

Assay [2] deals with T2, GLUT4 (Homo sapiens, UniProt P14672).
T2 construct: gene SLC2A4
T2 sequence (P14672 1-509): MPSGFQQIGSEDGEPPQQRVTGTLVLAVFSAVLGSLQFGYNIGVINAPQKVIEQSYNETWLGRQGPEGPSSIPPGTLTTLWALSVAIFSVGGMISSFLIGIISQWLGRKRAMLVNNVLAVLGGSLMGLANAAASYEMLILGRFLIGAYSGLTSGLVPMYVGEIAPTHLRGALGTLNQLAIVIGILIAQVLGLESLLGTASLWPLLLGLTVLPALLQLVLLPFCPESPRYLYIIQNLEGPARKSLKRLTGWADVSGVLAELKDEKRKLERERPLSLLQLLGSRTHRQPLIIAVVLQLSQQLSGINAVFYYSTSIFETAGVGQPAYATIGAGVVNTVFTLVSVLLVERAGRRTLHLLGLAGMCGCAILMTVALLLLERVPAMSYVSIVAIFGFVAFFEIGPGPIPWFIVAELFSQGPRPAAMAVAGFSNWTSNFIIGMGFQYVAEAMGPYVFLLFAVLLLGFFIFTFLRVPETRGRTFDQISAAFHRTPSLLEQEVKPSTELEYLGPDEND
The assay is described as above.

For assay [3], the target named is T3, GLUT10 (Homo sapiens, UniProt O95528).
T3 construct: gene SLC2A10
T3 sequence (O95528 1-541): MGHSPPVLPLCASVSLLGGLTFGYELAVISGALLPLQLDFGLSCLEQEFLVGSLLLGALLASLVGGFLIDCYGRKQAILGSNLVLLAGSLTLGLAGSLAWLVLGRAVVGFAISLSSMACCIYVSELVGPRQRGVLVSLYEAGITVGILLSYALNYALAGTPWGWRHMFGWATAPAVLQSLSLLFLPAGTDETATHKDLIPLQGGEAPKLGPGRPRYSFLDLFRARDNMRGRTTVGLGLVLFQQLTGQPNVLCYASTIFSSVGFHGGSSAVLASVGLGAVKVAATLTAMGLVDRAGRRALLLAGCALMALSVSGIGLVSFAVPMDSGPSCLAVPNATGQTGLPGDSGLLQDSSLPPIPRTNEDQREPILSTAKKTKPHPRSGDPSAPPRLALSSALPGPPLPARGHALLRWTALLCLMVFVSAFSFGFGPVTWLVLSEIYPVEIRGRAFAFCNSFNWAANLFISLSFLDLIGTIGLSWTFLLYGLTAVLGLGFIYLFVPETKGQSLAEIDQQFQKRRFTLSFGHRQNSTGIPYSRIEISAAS
The description is as above.

For assay [4], the target named is T4, GLUT2 (Homo sapiens, UniProt P11168).
T4 construct: gene SLC2A2
T4 sequence (P11168 1-524): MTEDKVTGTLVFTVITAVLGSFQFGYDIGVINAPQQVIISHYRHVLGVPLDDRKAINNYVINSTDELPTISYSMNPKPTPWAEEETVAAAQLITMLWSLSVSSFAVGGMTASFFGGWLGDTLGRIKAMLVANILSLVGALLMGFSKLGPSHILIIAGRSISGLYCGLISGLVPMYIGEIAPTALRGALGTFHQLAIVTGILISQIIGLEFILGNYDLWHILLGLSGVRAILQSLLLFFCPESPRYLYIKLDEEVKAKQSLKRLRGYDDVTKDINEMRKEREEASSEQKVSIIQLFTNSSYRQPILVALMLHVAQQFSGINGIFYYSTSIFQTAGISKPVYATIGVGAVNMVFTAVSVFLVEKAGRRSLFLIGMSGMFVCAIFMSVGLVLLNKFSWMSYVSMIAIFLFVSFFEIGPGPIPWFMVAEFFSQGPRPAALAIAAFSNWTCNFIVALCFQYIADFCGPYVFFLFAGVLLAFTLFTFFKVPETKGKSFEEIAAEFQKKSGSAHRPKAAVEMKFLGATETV
The description is as above. Particulars: 50 µM 2-deoxyglucose, 4 min; pH 7.3; labelled compound.

In assay [5] the target is T5, GLUT5 (Homo sapiens, UniProt P22732).
T5 construct: gene SLC2A5
T5 sequence (P22732 1-501): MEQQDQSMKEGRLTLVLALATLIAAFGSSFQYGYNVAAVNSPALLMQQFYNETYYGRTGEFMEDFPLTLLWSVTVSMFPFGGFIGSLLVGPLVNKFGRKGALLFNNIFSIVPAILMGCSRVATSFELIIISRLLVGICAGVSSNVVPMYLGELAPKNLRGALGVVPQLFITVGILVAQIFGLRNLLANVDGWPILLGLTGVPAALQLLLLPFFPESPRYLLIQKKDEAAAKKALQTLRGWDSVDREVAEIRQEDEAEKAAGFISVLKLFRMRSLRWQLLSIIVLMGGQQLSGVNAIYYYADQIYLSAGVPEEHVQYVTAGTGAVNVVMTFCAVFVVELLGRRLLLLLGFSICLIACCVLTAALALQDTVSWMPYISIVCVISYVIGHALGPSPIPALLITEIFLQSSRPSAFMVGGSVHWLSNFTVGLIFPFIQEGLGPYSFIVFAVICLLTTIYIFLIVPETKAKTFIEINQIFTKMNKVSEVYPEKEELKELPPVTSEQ
Description: [3H]-D-fructose uptake in GLUT-expressing HEK293 cells. To be noted: 4 µM fructose, 2 min; pH 7.3; labelled compound.

SMILES strings stand for the structures.

For the compound `Cc1c(NC(=O)c2cc(C(N)=O)nc3cc(F)ccc23)c(C(F)(F)F)nn1Cc1ccc(C#N)cc1` [BAY-876], the half-inhibitory concentration (IC50) is 2200 nM in assay [1], 5400 nM in assay [2] and 1700 nM in assay [3]. As to `OC[C@H]1OC(O)C[C@@H](O)[C@@H]1O` (some centres unmarked) [[^3H]-2-deoxyglucose], the “[3H]-2-deoxyglucose uptake in GLUT-expressing HEK293 cells” value in assay [4] is on record as “HEK293 cells that stably express human GLUT transporters were incubated”.

Consider `OCC1(O)OC[C@@H](O)[C@@H](O)[C@@H]1O` (stereo partly drawn) [[^3H]-D-fructose], for which, in assay [5], the “[3H]-D-fructose uptake in GLUT-expressing HEK293 cells” value is on record as “Fructose transport through GLUT5 was not impaired by BAY-876”.
